Results: ChEMBL document CHEMBL4177699, “Organoselenium compounds from purines: Synthesis of 6-arylselanylpurines with antioxidant and anticholinesterase activities and memory improvement effect” (Bioorg Med Chem, 2017)
Calls of active or inactive are those of the source. The calls are words filed in the database; no cut-off is given here.

How the values were obtained:
[1] = target: T1, Acetylcholinesterase (Mus musculus) (UniProt P21836); test: Inhibition of AChE in Swiss mouse cerebral cortex homogenate using acetylthiocholine as substrate assessed as acetylthiocholine level per mg protein at 100 uM preincubated for 2 mins followed by substrate addition by DTNB based assay (reference value: 9.6 +/- 0.5 umol/hr) (reference value: 9.6 +/- 0.5 umol/hr)
T1 sequence (whole entry): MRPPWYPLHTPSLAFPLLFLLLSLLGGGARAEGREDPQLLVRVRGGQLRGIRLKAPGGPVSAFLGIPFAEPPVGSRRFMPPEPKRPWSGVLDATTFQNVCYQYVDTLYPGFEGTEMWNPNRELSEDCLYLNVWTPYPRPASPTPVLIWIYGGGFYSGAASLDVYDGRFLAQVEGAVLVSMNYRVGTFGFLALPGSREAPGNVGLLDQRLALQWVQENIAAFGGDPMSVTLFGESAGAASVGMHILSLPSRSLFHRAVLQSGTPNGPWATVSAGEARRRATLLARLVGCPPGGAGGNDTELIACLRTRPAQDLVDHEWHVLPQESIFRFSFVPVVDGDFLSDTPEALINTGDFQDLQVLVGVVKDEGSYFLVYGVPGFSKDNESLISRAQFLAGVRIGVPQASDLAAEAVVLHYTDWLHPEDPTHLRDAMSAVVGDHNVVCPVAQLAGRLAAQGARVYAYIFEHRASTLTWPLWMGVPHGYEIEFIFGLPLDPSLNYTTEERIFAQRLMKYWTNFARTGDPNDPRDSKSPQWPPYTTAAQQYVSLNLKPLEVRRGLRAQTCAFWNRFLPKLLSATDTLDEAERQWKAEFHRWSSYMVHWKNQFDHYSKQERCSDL

[2] = Antioxidant activity assessed as ABTS radical scavenging activity at 100 uM after 30 mins (reference value: 100%); assay type: functional
[3] = Antioxidant activity assessed as DPPH radical scavenging activity at 200 uM after 30 mins (reference value: 100%); assay type: functional
[4] = Antioxidant activity assessed as DPPH radical scavenging activity at 100 uM after 30 mins (reference value: 100%); assay type: functional
[5] = Antioxidant activity assessed as ABTS radical scavenging activity at 10 uM after 30 mins (reference value: 100%); assay type: functional
[6] = Antioxidant activity assessed as ABTS radical scavenging activity at 1 uM after 30 mins (reference value: 100%); assay type: functional
[7] = Antioxidant activity assessed as DPPH radical scavenging activity at 10 uM after 30 mins (reference value: 100%); assay type: functional
[8] = target: T1, Acetylcholinesterase (Mus musculus); test: Inhibition of AChE in Swiss mouse cerebral cortex homogenate using acetylthiocholine as substrate assessed as acetylthiocholine level per mg protein at 10 uM preincubated for 2 mins followed by substrate addition by DTNB based assay (reference value: 9.6 +/- 0.5 umol/hr)
[9] = Antioxidant activity assessed as ABTS radical scavenging activity at 200 uM after 30 mins (reference value: 100%); assay type: functional
[10] = target: T1, Acetylcholinesterase (Mus musculus); test: Inhibition of AChE in Swiss mouse cerebral cortex homogenate using acetylthiocholine as substrate assessed as acetylthiocholine level per mg protein at 1 uM preincubated for 2 mins followed by substrate addition by DTNB based assay (reference value: 9.6 +/- 0.5 umol/hr)
[11] = target: T1, Acetylcholinesterase (Mus musculus); test: Inhibition of AChE in Swiss mouse cerebral cortex homogenate using acetylthiocholine as substrate assessed as acetylthiocholine level per mg protein at 200 uM preincubated for 2 mins followed by substrate addition by DTNB based assay (reference value: 9.6 +/- 0.5 umol/hr)
[12] = Antioxidant activity assessed as DPPH radical scavenging activity at 1 uM after 30 mins (reference value: 100%); assay type: functional
[13] = target: T1, Acetylcholinesterase (Mus musculus); test: Inhibition of AChE in Swiss mouse cerebral cortex homogenate using acetylthiocholine as substrate assessed as acetylthiocholine level per mg protein at 200 uM preincubated for 2 mins followed by substrate addition by DTNB based assay relative to acetylthiocholine
Mus musculus [14] = test: Toxicity in Swiss mouse assessed as impairment in locomotory activity at 10 mg/kg, ig treated immediately post-training measured up to 4 mins by open-field test; assay type: organism-based; conditions: in vivo, po
Mus musculus [15] = test: Toxicity in Swiss mouse assessed as impairment in locomotory activity at 10 mg/kg, ig treated 30 mins before test session measured up to 4 mins by open-field test; assay type: organism-based; conditions: in vivo, po
Mus musculus [16] = test: Toxicity in Swiss mouse assessed as impairment in locomotory activity at 10 mg/kg, ig treated 30 mins before training measured up to 4 mins by open-field test; assay type: organism-based; conditions: in vivo, po
Mus musculus [17] = test: Toxicity in Swiss mouse assessed as impairment in exploratory behavior at 10 mg/kg, ig treated 30 mins before test session measured up to 4 mins by open-field test; assay type: organism-based; conditions: in vivo, po
Mus musculus [18] = test: Toxicity in Swiss mouse assessed as impairment in exploratory behavior at 10 mg/kg, ig treated 30 mins before training measured up to 4 mins by open-field test; assay type: organism-based; conditions: in vivo, po
Mus musculus [19] = test: Cognitive enhancement activity in Swiss mouse assessed as increase in step-through latency at 10 mg/kg, ig treated immediately post-training measured 24 hrs after training trial by passive avoidance test relative to control; assay type: functional
[20] = target: T1, Acetylcholinesterase (Mus musculus); test: Inhibition of AChE in Swiss mouse cerebral cortex homogenate using acetylthiocholine as substrate assessed as acetylthiocholine level per mg protein at 1 uM preincubated for 2 mins followed by substrate addition by DTNB based assay relative to acetylthiocholine
Mus musculus [21] = test: Cognitive enhancement activity in Swiss mouse assessed as step-through latency at 10 mg/kg, ig treated 30 mins before training measured 24 hrs after training trial by passive avoidance test; assay type: functional, organism-based
Mus musculus [22] = test: Toxicity in Swiss mouse assessed as impairment in exploratory behavior at 10 mg/kg, ig treated immediately post-training measured up to 4 mins by open-field test; assay type: organism-based; conditions: in vivo, po
Mus musculus [23] = test: Cognitive enhancement activity in Swiss mouse assessed as increase in step-through latency at 10 mg/kg, ig treated 30 mins before test session measured 24 hrs after training trial by passive avoidance test relative to control; assay type: functional

| SMILES | Activity [1] | Activity [2] | Activity [3] | Activity [4] | Activity [5] | Activity [6] | Activity [7] | Activity [8] | Activity [9] | Activity [10] | Activity [11] | Activity [12] | other results |
| --- | --- | --- | --- | --- | --- | --- | --- | --- | --- | --- | --- | --- | --- |
| Cc1ccc([Se]c2ncnc3[nH]cnc23)cc1 | 8.9 µmol/h | 81.7% | 93% | 96.3% | 98% | 100% | 99.7% | 9.3 µmol/h | 61.5% | 8.7 µmol/h | 8.9 µmol/h | 101% |  |
| Cc1ccccc1[Se]c1ncnc2[nH]cnc12 | 7.1 µmol/h | 97.7% | 98.7% | 99.3% | 96.9% | 99.3% | 100% | 7.6 µmol/h | 94.8% | 7.9 µmol/h | 6.3 µmol/h | 100% | Imax [13]: 34.4% |
| Fc1ccc([Se]c2ncnc3[nH]cnc23)cc1 | 6.6 µmol/h | 99.7% | 98% | 98.6% | 101% | 99.7% | 99.4% | 6.5 µmol/h | 96.9% | 6.6 µmol/h | 6.6 µmol/h | 99.4% | Activity (Mus musculus [14]): Non-Toxic; Activity (Mus musculus [15]): Non-Toxic; Activity (Mus musculus [16]): Non-Toxic; Activity (Mus musculus [17]): Non-Toxic; Activity (Mus musculus [18]): Non-Toxic; Activity (Mus musculus [19]): 52%; Imax [20]: 31.2%; Activity (Mus musculus [21]): inactive; Activity (Mus musculus [22]): Non-Toxic; Activity (Mus musculus [23]): 44% |
| c1ccc([Se]c2ncnc3[nH]cnc23)cc1 | 7.7 µmol/h | 93.2% | 90.1% | 95.1% | 98.8% | 99.9% | 99.4% | 7.6 µmol/h | 86.5% | 7.8 µmol/h | 7.6 µmol/h | 99.4% |  |
| COc1ccc([Se]c2ncnc3[nH]cnc23)cc1 | 11 µmol/h | 97.1% | 97.5% | 98.5% | 98.1% | 101% | 99.7% | 11.3 µmol/h | 93.5% | 10.4 µmol/h | 8.8 µmol/h | 99.8% |  |
| Clc1ccc([Se]c2ncnc3[nH]cnc23)cc1 | 7.8 µmol/h | 86.5% | 68% | 85.9% | 98.4% | 99.5% | 98.8% | 7.3 µmol/h | 72.6% | 7.2 µmol/h | 7.8 µmol/h | 100% |  |
| FC(F)(F)c1cccc([Se]c2ncnc3[nH]cnc23)c1 | 8.2 µmol/h | 97.9% | 99% | 99.4% | 98.9% | 99.4% | 99.4% | 8.9 µmol/h | 97.6% | 7.9 µmol/h | 8.2 µmol/h | 99.7% |  |
